Assay results taken from ChEMBL document CHEMBL1151062, “Synthesis and biological activity of 3-alkyl- and 3-alkenyl-3-dephenyldocetaxels” (Bioorg Med Chem Lett, 1994).

How the values were obtained:
Mus musculus [1] = species: Mus musculus; experiment: Cell kill against B16 melanoma cell lines at a concentration of 0.4 mL per mouse on days 5,7,9 in B6D2F1 mice; type: functional
Mus musculus [2] = species: Mus musculus; experiment: Time for median tumor to reach 1000 mg was determined against B16 melanoma cell lines at a concentration of 0.4 mL per mouse on days 5,7,9 in B6D2F1 mice; type: functional
Mus musculus [3] = experiment: In vivo antitumor activity administered iv, at a concentration of 12.4 mg/kg/day per mouse was determined against B16 melanoma cell lines on days 5,7,9 in B6D2F1 mice; type: functional
P388 [4] = experiment: In vitro cytotoxicity against doxorubicin resistant P388 cell lines; type: functional, cell-based; conditions: Mus musculus
P388 [5] = experiment: Microtubule disassembly inhibitory activity against murine P388 cell line relative to the activity of paclitaxel; type: functional, Mus musculus
P388 [6] = experiment: In vitro cytotoxicity against murine P388 cell lines; type: functional, cell-based; conditions: Mus musculus
A549 = experiment: Cytotoxicity against human A549 non small cell lung cell lines; type: functional, cell-based
A121 = experiment: Cytotoxicity against human A121 ovarian cells; type: functional, cell-based
HT-29 = experiment: Cytotoxicity against human colon HT-29 cell lines; type: functional, cell-based
MCF7 [7] = experiment: Cytotoxicity against adriamycin resistant human breast MCF-7 cancer cell lines; type: functional, cell-based
MCF7 [8] = experiment: Cytotoxicity against human breast MCF-7 cancer cell lines; type: functional, cell-based
Mus musculus [9] = experiment: In vivo antitumor activity administered iv, at a concentration of 20 mg/kg/day per mouse was determined against B16 melanoma cell lines on days 5,7,9 in B6D2F1 mice; type: functional

SMILES	Log cell kill (Mus musculus [1])	Median tumor (Mus musculus [2]) [days]	T/C (Mus musculus [3]) [%]	IC50 (P388 [4]) [nM]	Ratio (P388 [5])	IC50 (P388 [6]) [nM]	IC50 (A549) [nM]	IC50 (A121) [nM]	IC50 (HT-29) [nM]	IC50 (MCF7 [7]) [nM]	IC50 (MCF7 [8]) [nM]	T/C (Mus musculus [9]) [%]
CC(=O)O[C@@]12CO[C@@H]1C[C@H](O)[C@@]1(C)C(=O)[C@H](O)C3=C(C)[C@@H](OC(=O)[C@H](O)[C@H](C=C(C)C)NC(=O)OC(C)(C)C)C[C@@](O)([C@@H](OC(=O)c4ccccc4)C12)C3(C)C (stereo partly specified)	2.25	27.54	8	2360	0.64	12.8	–	–	–	–	–	–
CC(=O)O[C@@]12CO[C@@H]1C[C@H](O)[C@@]1(C)C(=O)[C@H](O)C3=C(C)[C@@H](OC(=O)[C@H](O)[C@H](CC(C)C)NC(=O)OC(C)(C)C)C[C@@](O)([C@@H](OC(=O)c4ccccc4)C12)C3(C)C (stereo partly specified)	1.97	26.03	–	1590	0.78	12.2	0.7	1.9	0.63	12	0.55	5
CC(=O)O[C@@]12CO[C@@H]1C[C@H](O)[C@@]1(C)C(=O)[C@H](O)C3=C(C)[C@@H](OC(=O)[C@H](O)[C@H](/C=C/c4ccccc4)NC(=O)OC(C)(C)C)C[C@@](O)([C@@H](OC(=O)c4ccccc4)C12)C3(C)C (stereo partly specified)	–	–	–	7490	1.45	264	–	–	–	–	–	–
CC(=O)O[C@@]12CO[C@@H]1C[C@H](O)[C@@]1(C)C(=O)[C@H](O)C3=C(C)[C@@H](OC(=O)[C@H](O)[C@@H](NC(=O)OC(C)(C)C)c4ccccc4)C[C@@](O)([C@@H](OC(=O)c4ccccc4)[C@H]21)C3(C)C.O.O.O [DOCETAXEL]	–	–	–	1860	0.7	9.9	–	–	–	–	–	–
C/C=C/[C@H](NC(=O)OC(C)(C)C)[C@@H](O)C(=O)O[C@H]1C[C@@]2(O)[C@@H](OC(=O)c3ccccc3)C3[C@](C)(C(=O)[C@H](OC(C)=O)C(=C1C)C2(C)C)[C@@H](O)C[C@H]1OC[C@@]31OC(C)=O (stereo partly specified)	–	–	–	–	–	–	0.54	0.9	0.76	14	0.51	–
CC(=O)O[C@@]12CO[C@@H]1C[C@H](O)[C@@]1(C)C(=O)[C@H](O)C3=C(C)[C@@H](OC(=O)[C@H](O)[C@H](CC(C)(C)C)NC(=O)OC(C)(C)C)C[C@@](O)([C@@H](OC(=O)c4ccccc4)C12)C3(C)C (stereo partly specified)	–	–	–	6880	1.45	125	–	–	–	–	–	–
CC(=O)O[C@H]1C(=O)[C@@]2(C)C([C@H](OC(=O)c3ccccc3)[C@]3(O)C[C@H](OC(=O)[C@H](O)[C@H](C=C(C)C)NC(=O)c4ccccc4)C(C)=C1C3(C)C)[C@]1(OC(C)=O)CO[C@@H]1C[C@@H]2O (stereo partly specified)	–	–	–	–	–	–	0.45	1.4	0.96	113	0.54	–
CC(=O)O[C@H]1C(=O)[C@@]2(C)C([C@H](OC(=O)c3ccccc3)[C@]3(O)C[C@H](OC(=O)[C@H](O)[C@H](CC(C)C)NC(=O)OC(C)(C)C)C(C)=C1C3(C)C)[C@]1(OC(C)=O)CO[C@@H]1C[C@@H]2O (stereo partly specified)	–	–	–	–	–	–	0.98	3.8	3.2	36	4	–
